Measured values reported in US10473645B2, “Methods for identifying a receptor for a ligand and uses thereof” (UNIVERSITE DE GENEVE, priority 2014, dated 2019).
pEC50: −log10 of the molar value.

How the values were obtained:
OSNs expressing olfr745 = assay: pS6 immunolabeling with OR in situ hybridization after odorant exposure; assay type: in vivo, mouse; conditions: 5% acetophenone, 60 minutes
Protocol: (§1) In order to independently validate the identity of an acetophenone receptor obtained with the RNAseq approach, the potential colocalization following acetophenone exposure of a neuronal activity marker (the phosphorylated ribosomal protein S6 (pS6) (Knight et al., 2012, Cell, 151, 1126-1137) and specific olfactory receptors were evaluated. To this aim, in-situ hybridizations were performed on sections of olfactory tissue with probes targeting receptor mRNAs followed by immunolabeling of pS6. The probes used were directed against the transcripts of most of the ORs determined as responsive including Olfr983 transcripts (encoding a known acetophenone receptor), Olfr171 transcripts (encoding a known ethyl isobutyrate receptor), and Olfr145 transcripts, encoding a newly identified receptor by RNAseq. Before analysis, mice were exposed to either 5% acetophenone, 5% ethyl isobutyrate, or a negative control condition for 60 minutes. […] 66% (Olfr983) and 70% (Olfr145) of the neurons were positive for pS6 after acetophenone exposure, while only 11% of the neurons expressing Olfr171 were positive for pS6 after exposure to this compound.

OSNs expressing olfr19 = assay: as above; assay type: in vivo, mouse; conditions: 5% acetophenone, 60 minutes
Protocol: as §1

[1] = test system: neurons expressing Olfr983; assay: as above; assay type: in vivo, mouse; conditions: 60 minutes
Protocol: as §1

OSNs expressing olfr30 = assay: as above; assay type: in vivo, mouse; conditions: 5% acetophenone, 60 minutes
Protocol: as §1

OSNs expressing olfr143 = assay: as above; assay type: in vivo, mouse; conditions: 5% acetophenone, 60 minutes
Protocol: as §1

OSNs expressing olfr556 = assay: as above; assay type: in vivo, mouse; conditions: 5% acetophenone, 60 minutes
Protocol: as §1

OSNs expressing olfr1135 = assay: as above; assay type: in vivo, mouse; design: key: y: neuronal activation (i.e. pS6 signal in a fraction of neuron exceeding 15% relative to controls); no pS6 signals; conditions: 5% acetophenone, 60 minutes
Protocol: as §1

OSNs expressing olfr750 = assay: as above; assay type: in vivo, mouse; design: key: y: neuronal activation (i.e. pS6 signal in a fraction of neuron exceeding 15% relative to controls); no pS6 signals; conditions: 5% acetophenone, 60 minutes
Protocol: as §1

[2] = test system: Olfr171-expressing neurons; assay: as above; design: species or system mouse; conditions: 5% odorant, 60 minutes, in vivo
Protocol: as §1

Olfr1377 = assay: OR transcript level by RT-qPCR after in vivo odorant exposure; design: species or system mouse; key to olfr1377 candidate OR (RNAseq) confirmed by qPCR: The transcript downregulation of 21 out of the 26 olfactory receptor candidates obtained by RNAseq was confirmed by qPCR; false RNAseq positive candidates, namely OR candidates for which in fact mRNA was not downregulated following acetophenone exposure; conditions: for Olfr1377 mRNA level relative to unexposed controls: 5% odorant, 5 hours, in vivo, RT-qPCR
Protocol: In vivo exposure to odorant: Starting 48 h before experiments, mice were habituated to pure DMSO on a cotton ball. 200 μl were pipetted directly onto the cotton and placed in the cage, replacing any cotton that was already in the cage for nest-making purposes.
On the day of the experiment, mice receiving odorants were transferred to a different room, where they were exposed to a cotton ball on which 200 μl of odorant diluted in pure DMSO were deposited. Exposures started in the morning between 8 and 10 am (that is two hours after lights were on) and mice were killed and dissected between 1 and 3 pm. […] If a number of different odorants were tested in the same experiment, a different overpressurized room would always be used for each odorant to avoid odor cross-contamination.
After odorant exposure, mice were killed by cervical dislocation and immediately decapitated. The main olfactory epithelia (MOE), were harvested in their entirety and transferred to a tube containing 600 μl of lysis buffer and β-mercaptoethanol (RNAeasy kit, Qiagen, following the manufacturer protocol) and a 0.5 cm diameter steel ball, and then put on ice. Samples were then homogenized using a FastPrep®-24 instrument (MP Biomedicals) at 6 m/s for 30 s and left on ice. RNA extraction was performed on all samples in parallel using the Qiagen RNeasy Mini® kit following the manufacturer's instructions. Two DNase treatments were performed on all samples: first using the Qiagen RNase-Free DNase Set® and then using the Life Technologies Ambion DNase I® kit. RNA samples were then aliquoted and stored at −80° C.
RNA concentrations were determined using an Amersham Ultrospec® 3100 Pro spectrophotometer, and RNA quality was evaluated with an Agilent Technologies 2100 Bioanalyzer®. […]
qPCR Ct values were analyzed using an in-house developed Microsoft Excel® macro file. […] Ct values were converted to quantities relative to the maximum for each given gene. Selected reference genes were then analyzed for variance using the geNorm algorithm. […]

Olfr556 = target: T1, Olfr556 (Mus musculus, UniProt B2RRG2); conditions: expressed in HEK cells; previously shown; read-out: EC50 as agonist of Olfr556; cited from earlier work
T1 sequence (B2RRG2 1-324): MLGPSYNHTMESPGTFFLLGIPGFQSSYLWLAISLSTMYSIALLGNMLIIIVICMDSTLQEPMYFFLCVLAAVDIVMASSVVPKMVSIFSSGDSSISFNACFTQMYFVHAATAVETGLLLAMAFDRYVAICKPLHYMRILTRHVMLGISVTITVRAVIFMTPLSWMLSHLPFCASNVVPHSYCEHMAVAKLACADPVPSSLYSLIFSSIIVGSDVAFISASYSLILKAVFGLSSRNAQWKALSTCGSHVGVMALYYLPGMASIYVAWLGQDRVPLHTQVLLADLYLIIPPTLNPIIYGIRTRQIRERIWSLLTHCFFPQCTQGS

For CC(=O)c1ccccc1 [acetophenone], the “olfr745 ps6 positive” value (OSNs expressing olfr745) was “y (neuronal activation (i.e. pS6 signal in a fraction of neuron exceeding 15% relative to controls))”, the “olfr19 ps6 positive” value (OSNs expressing olfr19) was “y (neuronal activation (i.e. pS6 signal in a fraction of neuron exceeding 15% relative to controls))” and the “olfr983 ps6 positive” value ([1]; 5% acetophenone) was “y (neuronal activation (i.e. pS6 signal in a fraction of neuron exceeding 15% relative to controls))”. For the same compound, the “fraction of Olfr983-expressing neurons positive for pS6” value ([1]; 5% odorant, in vivo) was 66%, the “olfr30 ps6 positive” value (OSNs expressing olfr30) was “y (neuronal activation (i.e. pS6 signal in a fraction of neuron exceeding 15% relative to controls))” and the “olfr143 ps6 positive” value (OSNs expressing olfr143) was “y (neuronal activation (i.e. pS6 signal in a fraction of neuron exceeding 15% relative to controls))”. The “olfr556 ps6 positive” value (OSNs expressing olfr556) was “y (neuronal activation (i.e. pS6 signal in a fraction of neuron exceeding 15% relative to controls))”, the “olfr1135 ps6 positive” value (OSNs expressing olfr1135) was “n” and the “olfr750 ps6 positive” value (OSNs expressing olfr750) was “n”. The “fraction of Olfr171-expressing neurons positive for pS6” value [2] was 11%, the “olfr1377 candidate OR (RNAseq) confirmed by qPCR” value (Olfr1377; 5% acetophenone exposure) was “y” and the “Olfr1377 mRNA level relative to unexposed controls” value (Olfr1377) was “decrease”. For the same compound, the “Olfr1377 mRNA level relative to unexposed controls” value (Olfr1377; listed as Acetophenone) was “downregulates” and the pEC50 (Olfr556) was over 4.30.
